Reference: patent publication US4990531A, “Derivatives of 1-arylsulphonyl-2-pyrrolidinone and their use as medicaments” (Roussel Uclaf, priority 1988, dated 1991)
Where two headings read alike, the source gives them in different places.

Legend:
[1] = target: serotonine 5 HT1 receptor; assay: Affinity for other receptors: serotonine 5 HT1; type: binding; settings: negligible affinity
[2] = target: serotonine 5 HT2 receptor (Homo sapiens, UniProt P28223); assay: Affinity for other receptors: serotonine 5 HT2; type: binding; settings: negligible affinity
benzodiazepine receptor = assay: Affinity for other receptors: benzodiazepines; type: binding; settings: negligible affinity
adrenoreceptor alpha 2 = assay: Affinity for other receptors: adrenoreceptor alpha 2; type: binding; settings: negligible affinity
adrenoreceptor beta 1 = adrenoreceptor beta 1 (Homo sapiens, UniProt P08588); assay: Affinity for other receptors: adrenoreceptor beta 1; type: binding; settings: negligible affinity
adrenoreceptor beta 2 = adrenoreceptor beta 2 (Homo sapiens, UniProt P07550); assay: Affinity for other receptors: adrenoreceptor beta 2; type: binding; settings: negligible affinity
opiated receptor mu = opiated receptor mu (Homo sapiens, UniProt P35372); assay: Affinity for other receptors: opiated receptor mu; type: binding; settings: negligible affinity
[3] = system: contractions induced by acetylcholine, isolated ileum; assay: Antagonism of acetylcholine-induced contractions, isolated guinea-pig ileum; settings: acetylcholine 1×10^-6 M; contact time one minute; read-out: Antagonism with various agents (IC50): Ach.
Experimental: (§1) The interaction of the compounds with various receptors was evaluated on the isolated ileum of a guinea-pig according to the following method.
(§2) Segments of the ileum of guinea-pigs of 2.5-3 cm were washed and immediately suspended in a bath containing 10 ml of Tyrode's solution at 37° C. and aerated with a mixture of oxygen (95%) and carbon dioxide (5%). After a stabilization period of at least 30 minutes contractions were recorded, while the preparation was maintained under constant tension of 1 g, by means of a detector connected to a polygraph. The agonistic action was evaluated by leaving the compound in contact with the isolated tissue for a period necessary to show the maximum […]; then it was washed with the Tyrode's solution. The following dose was added only after the preparation had returned to its base line. Arecoline was used as a reference product. The antagonist action was evaluated on the contractions induced by acetylcholine (1×10^-6 M), histamine (1×10^-5 M), serotonine (1×10^-6 M) and barium chloride (2×10^-4 M). […] The contact time before adding the agonist was one minute.
(§3) For each compound the does response curves are obtained with 4 to 6 different concentrations and 3 to 5 independent tests. The agonist activity is expressed by pD2 (negative logarithm of the dose which produces 50% of the maximum effect).

[4] = system: contractions induced by histamine, isolated ileum; assay: Antagonism of histamine-induced contractions, isolated guinea-pig ileum; settings: histamine 1×10^-5 M; contact time one minute; read-out: Antagonism with various agents (IC50): Istam.
Experimental: as §1, §2, §3

[5] = system: contractions induced by serotonine, isolated ileum; assay: Antagonism of serotonine-induced contractions, isolated guinea-pig ileum; settings: serotonine 1×10^-6 M; contact time one minute; read-out: Antagonism with various agents (IC50): Seroton.
Experimental: as §1, §2, §3

[6] = system: contractions induced by barium chloride, isolated ileum; assay: Antagonism of barium chloride-induced contractions, isolated guinea-pig ileum; settings: barium chloride 2×10^-4 M; contact time one minute; read-out: Antagonism with various agents (IC50): BaCL2
Experimental: as §1, §2, §3

isolated ileum = assay: Agonist action on isolated guinea-pig ileum; settings: negative logarithm of the dose producing 50% of maximum effect
Experimental: as §1, §2, §3

[7] = system: contractions induced by acetylcholine, isolated colon; assay: Antagonism of acetylcholine-induced contractions, isolated colon of rat; settings: acetylcholine 3×10^-6 M; contact 3 minutes
Experimental: The remarkable antagonist action of the compounds of the invention was confirmed on the isolated colon of rats. In this test it was established whether the antagonist activity was of competitive or non-competitive type.
(§4) The following method was used: segments of the colon of rats of about 2.5 cm are washed and suspended in an insulated bath containing 10 ml of a solution of De Jalon having the following composition: (mM): NaCl 154; KCl 5.7; CaCl2 0.27; NaHCO3 5.9 and glucose 2.5. The temperature of the bath is maintained at 32° C. In these conditions, while maintaining the preparation under a tension of 1 g, the spontaneous activity of the colon is minimal. After a stabilization period of at least 30 minutes, the tension variations are recorded using an isometric transducer connected to a recorder. A series of tests was carried out to evaluate the antagonist activity in relation to the contractions induced by a maximum dose of acetylcholine. (3×10^-6 M).
The compounds are left in contact with the preparation for 3 minutes before adding acetylcholine.
Atropine was used as a reference product. For each compound the dose-response curves are obtained with 4 to 6 different concentrations and 3 to 5 independent tests.

[8] = target: T1, muscarine receptors, involved in the contractions of the colon (Rattus norvegicus, UniProt P08483); assay: Antagonist affinity and type of antagonism (Schild), isolated colon of rat; settings: for "Slope" of Schild plot, isolated colon of rat / Kb: cumulative acetylcholine, Schild's method, contact 5 min; for Kb: read-out: pA2, isolated colon of rat (converted); for displacement of the dose-response curve of acetylcholine: isolated colon of rat, in words
T1 construct: segments of the colon of rats of about 2.5 cm; from tissue; host or cells: isolated rat colon segments
Experimental: as §4
For each compound the dose-response curves are obtained with 4 to 6 different concentrations and 3 to 5 independent tests.
In a second series of tests the acetylcholine is added to the bath in cumulative doses according to the van Rossum method (J. M. van Rossum, Arch, Int. Pharmacodyn. 143, 299, 1963). Having obtained two equal and consecutive dose-response curves with acetylcholine, a third dose-responsecurve is obtained in the presence of the compound (contact time of compound before acetylcholine=5 min.) Each compound was tested with 3-4 different concentrations
The antagonist affinity and the type of antagonism (competitive, non-competitive) for the muscarine receptors was calculated according to Schild's method (H. D. Schild, Brit. J. Pharmacol. 2, 189, 1947).

[9] = system: cholinomimetic effects induced by carbachol; assay: In vivo anticholinergic action: inhibition of carbachol-induced cholinomimetic effects; design: species or system CD1 male mice; settings: i.p.; for ED50 / ED (1 degree C): Mus musculus, ip, 0.5 h, carbachol 1 mg/kg s.c. 30 min later; for ED (1 degree C): rectal temperature, read-out: Body Temperature: dose able to increase by 1° C. the hypothermic effect induced by carbachol; for selective anticholinergic action in vivo: mice, in words
Experimental: The anticholinergic activity of the compounds was determined by evaluating the capacity to inhibit cholinomimetic effects induced by carbachol. Atropine sulphate was used as reference product.
CD1 male mice are used weighing 25 to 30 g. They are divided into groups of 5 animals and treated by intraperitoneal route, in scaled doses, with the products or with 0.25% of Methocel for the controls. 10 animals are used for each dose. 30 minutes after the administration of the compounds, the mice are subcutaneously injected with 1 mg/kg of carbachol, dissolved in physiological serum.
Each animal was examined 30 minutes after the injection of carbachol to evaluate the presence of diarrhea, salivation and watering of the eyes; the body temperature was also measured using a thermocouple inserted 1.5 cm into the rectum.
For each compound, there was determined, and recorded in the following table, the dose able to inhibit, in 50% of the animals, the appearance of peripheral cholinomimetic symptoms induced by carbachol, and to increase by 1° C. the hypothermic effect induced by the cholinergic agent.

[10] = read-out: dose able to inhibit, in 50% of the animals, Diarrhea
[11] = read-out: dose able to inhibit, in 50% of the animals, Salivation
[12] = read-out: dose able to inhibit, in 50% of the animals, Watering of Eyes

T1 sequence (P08483 whole entry): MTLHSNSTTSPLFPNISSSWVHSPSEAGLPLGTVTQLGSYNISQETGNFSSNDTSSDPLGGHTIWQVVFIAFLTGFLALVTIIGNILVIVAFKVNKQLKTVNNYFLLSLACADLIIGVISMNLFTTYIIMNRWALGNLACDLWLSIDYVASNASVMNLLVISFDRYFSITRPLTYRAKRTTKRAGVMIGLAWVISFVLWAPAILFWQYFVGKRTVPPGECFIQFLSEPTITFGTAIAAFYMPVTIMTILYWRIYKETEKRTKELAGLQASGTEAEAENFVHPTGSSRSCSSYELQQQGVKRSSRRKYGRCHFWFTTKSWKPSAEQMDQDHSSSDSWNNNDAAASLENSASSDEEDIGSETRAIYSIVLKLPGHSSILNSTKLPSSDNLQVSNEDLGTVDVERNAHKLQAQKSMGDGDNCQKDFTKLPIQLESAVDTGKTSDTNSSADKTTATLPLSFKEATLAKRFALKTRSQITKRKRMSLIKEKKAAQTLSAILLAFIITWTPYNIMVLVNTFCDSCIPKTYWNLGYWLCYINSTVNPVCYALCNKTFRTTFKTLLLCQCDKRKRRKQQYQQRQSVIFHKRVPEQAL
Sequence of serotonine 5 HT2 receptor (P28223 whole entry): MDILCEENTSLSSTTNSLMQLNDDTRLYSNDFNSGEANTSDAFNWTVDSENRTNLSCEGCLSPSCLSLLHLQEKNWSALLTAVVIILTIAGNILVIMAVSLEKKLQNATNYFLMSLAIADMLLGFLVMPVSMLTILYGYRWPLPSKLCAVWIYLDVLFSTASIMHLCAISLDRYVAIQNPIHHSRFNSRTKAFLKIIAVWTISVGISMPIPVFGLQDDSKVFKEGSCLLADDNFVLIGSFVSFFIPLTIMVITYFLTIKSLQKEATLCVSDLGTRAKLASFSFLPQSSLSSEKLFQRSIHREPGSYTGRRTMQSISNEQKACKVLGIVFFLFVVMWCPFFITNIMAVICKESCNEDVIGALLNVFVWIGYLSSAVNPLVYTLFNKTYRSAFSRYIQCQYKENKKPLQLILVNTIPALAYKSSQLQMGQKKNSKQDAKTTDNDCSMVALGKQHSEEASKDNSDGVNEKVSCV
Sequence of opiated receptor mu (P35372 whole entry): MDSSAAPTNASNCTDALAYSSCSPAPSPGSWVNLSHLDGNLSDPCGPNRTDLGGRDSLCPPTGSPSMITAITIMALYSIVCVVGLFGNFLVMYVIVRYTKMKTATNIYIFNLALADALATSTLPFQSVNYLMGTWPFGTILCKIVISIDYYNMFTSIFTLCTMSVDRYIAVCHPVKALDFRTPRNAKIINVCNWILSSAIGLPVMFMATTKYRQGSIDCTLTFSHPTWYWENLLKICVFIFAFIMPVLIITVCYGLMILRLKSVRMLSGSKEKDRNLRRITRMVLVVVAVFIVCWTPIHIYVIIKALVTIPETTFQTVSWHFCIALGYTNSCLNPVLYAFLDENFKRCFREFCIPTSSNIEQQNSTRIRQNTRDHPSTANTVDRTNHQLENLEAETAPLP
Sequence of adrenoreceptor beta 2 (P07550 whole entry): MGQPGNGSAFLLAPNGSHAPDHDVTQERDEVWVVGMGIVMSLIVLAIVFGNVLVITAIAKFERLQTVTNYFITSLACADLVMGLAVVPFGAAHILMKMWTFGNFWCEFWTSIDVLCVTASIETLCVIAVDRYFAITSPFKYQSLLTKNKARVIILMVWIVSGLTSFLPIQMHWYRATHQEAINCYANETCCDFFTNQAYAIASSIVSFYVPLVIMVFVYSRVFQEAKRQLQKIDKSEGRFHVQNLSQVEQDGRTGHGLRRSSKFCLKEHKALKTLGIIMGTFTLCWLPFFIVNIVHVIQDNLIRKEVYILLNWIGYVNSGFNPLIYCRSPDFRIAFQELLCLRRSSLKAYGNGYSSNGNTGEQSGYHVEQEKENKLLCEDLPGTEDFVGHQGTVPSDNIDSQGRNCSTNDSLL
Sequence of adrenoreceptor beta 1 (P08588 whole entry): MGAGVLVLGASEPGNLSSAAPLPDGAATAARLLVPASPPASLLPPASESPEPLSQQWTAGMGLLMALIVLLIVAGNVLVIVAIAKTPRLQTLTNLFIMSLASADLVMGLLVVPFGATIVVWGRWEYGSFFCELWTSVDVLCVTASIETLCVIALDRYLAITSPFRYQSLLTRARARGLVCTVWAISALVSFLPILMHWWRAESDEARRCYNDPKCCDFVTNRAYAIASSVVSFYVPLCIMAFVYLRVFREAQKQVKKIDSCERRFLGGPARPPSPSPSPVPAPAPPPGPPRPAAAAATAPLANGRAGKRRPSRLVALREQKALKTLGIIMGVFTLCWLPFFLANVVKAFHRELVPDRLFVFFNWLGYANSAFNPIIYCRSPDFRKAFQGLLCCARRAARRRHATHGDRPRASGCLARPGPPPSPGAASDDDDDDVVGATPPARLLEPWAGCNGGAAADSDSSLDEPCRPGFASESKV

Structure (SMILES) | IC50 [1] [µM] | IC50 [2] [µM] | IC50 (benzodiazepine receptor) [µM] | IC50 (adrenoreceptor alpha 2) [µM] | IC50 (adrenoreceptor beta 1) [µM] | IC50 (adrenoreceptor beta 2) [µM] | IC50 (opiated receptor mu) [µM] | IC50 [3] [µM] | IC50 [4] [µM] | IC50 [5] [µM] | IC50 [6] [µM] | Agonist Action (pD2) (isolated ileum) | IC50 [7] [µM] | "Slope" of Schild plot, isolated colon of rat [8] | Kb [8] [µM] | displacement of the dose-response curve of acetylcholine [8] | ED50 [9, 10] [mg/kg] | ED50 [9, 11] [mg/kg] | ED50 [9, 12] [mg/kg] | ED (1 degree C) [9] [mg/kg] | other results
CC(C)(C)c1ccc(S(=O)(=O)N2CCCC2=O)cc1 [Example 1, 1-(4-tert-butylbenzenesulphonyl)-2-pyrrolidinone] | 5 to 10 | 5 to 10 | 5 to 10 | 5 to 10 | 5 to 10 | 5 to 10 | 5 to 10 | 0.064 | > 100 | > 100 | 16 | < 4 | 0.28 | 0.89 | 0.017 | parallel displacement towards the right of the dose-response curve of acetyl-choline without reducing the maximum contraction | 7 | 10 | > 50 | 50 | selective anticholinergic action in vivo [9]: selective anticholinergic action on the intestinal musculature
CCN(CC)c1ccc(S(=O)(=O)N2CCCC2=O)cc1 [Example 2, 1-[4-(diethylamino)benzenesulphonyl]-2-pyrrolidinone] | 5 to 10 | 5 to 10 | 5 to 10 | 5 to 10 | 5 to 10 | 5 to 10 | 5 to 10 | 0.062 | > 100 | > 100 | 6 | < 4 | 0.16 | 1.08 | 0.0447 | parallel displacement towards the right of the dose-response curve of acetyl-choline without reducing the maximum contraction | 7 | > 50 | > 50 | > 50 | selective anticholinergic action in vivo [9]: selective anticholinergic action on the intestinal musculature
